Test results: patent US20070289889A1, “Biomarkers For The Prediction Of Drug-In Duced Diarrhea” (NOVARTIS AG, priority 2003, published 2007)

Key:
[1] = tested on: white blood cells; assay: mRNA expression profiling (Affymetrix U95A) of white blood cells, baseline vs. treated; type: in vivo, human
Method: Samples. Forty-three out of the ninety-one subjects who enrolled in the clinical trial consented to clinical pharmacogenetics analysis. For each subject, two clinical pharmacogenetics blood samples were scheduled: baseline and on Day 2 of Week 1 at hour 24. White blood cell (WBC) pellets were ficoll-hypaque separated from the whole blood by the investigator, frozen at −80° C. mRNA was extracted and profiled on the Affymetrix U95A GeneChip® platform.
mRNA expression profiling analysis. Any array with greater than 20% of genes called present by the Affymetrix MAS5 algorithm was a candidate for the analyses described herein. Affymetrix, “New statistical algorithms for monitoring gene expression on GeneChip® probe arrays.” Affymetrix Technical Notes. (2001). […] Forty-two out of the possible eighty-six arrays met the quality standards needed for analysis.
(§1) Statistical analysis. Fisher's Exact tests were performed to compare the demographics of the clinical pharmacogenetics participants to the overall trial population. An analysis of variance (ANOVA) was used to determine whether mRNA gene expression patterns correlated to either treatment status (baseline vs. treated), to experiencing diarrhoea (no diarrhoea vs. diarrhoea) or to whether specific blood cell type levels correlated to experiencing diarrhoea. All statistical analyses were performed using the SigmaStat 2.03 and SAS 8.02 programs.
Analysis of baseline vs. treated mRNA profiles by treatment group. To determine if gene expression in white blood cells was altered by epothilone B at 24 hours after treatment, a comparison between baseline and treated expression profiles was performed.

[2] = Blood cell, haematocrit and haemoglobin levels after epothilone B treatment by diarrhoea status; type: in vivo, human; details: for Basophils / Eosinophils / Haematocrit / Haemoglobin / Lymphocytes / Monocytes / Neutrophils / Platelets / White Blood Cells: CPG subjects after a single dose, mean ± SEM
Method: as §1
Next, the levels of each blood cell type were compared between the two groups of subjects. Because these values were not determined at the blood draw timepoint, values for the second blood draw timepoint after baseline in cycle 1, corresponding to the first blood draw after the first epothilone B treatment (usually 24 hours after the […]) were used for this comparison. […] See, TABLE 4 and FIGS. 1-2.
Because females generally have lower levels of haematocrit and haemoglobin compared to males, a similar analysis was done by sex. As shown in TABLE 5 and FIGS. 1-2, similar trends in haematocrit and haemoglobin levels were identified for each sex. To determine if these associations exist for the entire trial subject population, the haematocrit and haemoglobin levels for all subjects at the second blood draw after baseline in cycle 1 were investigated.

[3] = 3.6 mg/m^2, 24 hours after treatment
[4] = CPG Females after a single dose, Diarrhoea (n = 10)
[5] = CPG Females after a single dose, No Diarrhoea (n = 4)
[6] = CPG Males after a single dose, Diarrhoea (n = 5)
[7] = CPG Males after a single dose, No Diarrhoea (n = 1)
[8] = all Females after treatment, Diarrhoea (n = 42)
[9] = all Females after treatment, No Diarrhoea (n = 22)
[10] = all Males after treatment, Diarrhoea (n = 16)
[11] = all Males after treatment, No Diarrhoea (n = 11)
[12] = all subjects after treatment, Diarrhoea any grade (n = 58)
[13] = all subjects after treatment, No Diarrhoea (n = 33)

Structure (SMILES): C/C(=C\c1csc(C)n1)[C@@H]1C[C@@H]2O[C@]2(C)CCC[C@H](C)[C@H](O)[C@@H](C)C(=O)C(C)(C)[C@@H](O)CC(=O)O1 [epothilone B, Epothilone B]
- Fold Change [treated/baseline] DAPK1 (40049_at) mRNA [1, 3]: 2.1
- Fold Change [treated/baseline] DR1 (32621_at) mRNA [1, 3]: 1.9
- Fold Change [treated/baseline] JAK1 (1457_at) mRNA [1, 3]: 1.7
- Fold Change [treated/baseline] K-ALPHA-1 (32272_at) mRNA [1, 3]: 1.7
- Fold Change [treated/baseline] MAP4K2 (187_at) mRNA [1, 3]: −1.7
- Fold Change [treated/baseline] RAP1A (1848_at) mRNA [1, 3]: 1.9
- Fold Change [treated/baseline] SURF2 (38210_at) mRNA [1, 3]: 2.4
- Fold Change [treated/baseline] TCFL4 (32578_at) mRNA [1, 3]: −1.6
- Fold Change [treated/baseline] TM9SF1 (38835_at) mRNA [1, 3]: 2.2
- Fold Change [treated/baseline] ZFP36 (40448_at) mRNA [1, 3]: 1.6
- Fold Change [treated/baseline] nuclear transcription factor Y, alpha (33297_at) mRNA [1, 3]: −1.6
- number of genes with statistically significant changes in expression, treated vs. baseline ([1]; 3.6 mg/m^2 treatment, 24 hours): eleven
- genes with statistically significant expression differences, treated vs. baseline ([1]; 2.5 and 3.0 mg/m^2 treatments, 24 hours): No genes with statistically significant differences were identified
- genes with statistically significant expression differences, treated vs. baseline ([1]; all treated samples combined, 24 hours after treatment): no genes with statistically significant differences were identified
- HCT [2, 4]: 35.63 ± 0.01%
- HGB [2, 4]: 12.01 ± 0.35 g/dL
- HCT [2, 5]: 30.63 ± 0.20%
- HGB [2, 5]: 10.40 ± 0.20 g/dL
- HCT [2, 6]: 38.30 ± 1.77%
- HGB [2, 6]: 13.18 ± 0.62 g/dL
- HCT [2, 7]: 26.30%
- HGB [2, 7]: 8.70 g/dL
- Basophils ([2]; Diarrhoea (n = 15)): 0.57 ± 0.12%
- Eosinophils ([2]; Diarrhoea (n = 15)): 2.74 ± 0.45%
- Haematocrit ([2]; Diarrhoea (n = 15)): 36.11 ± 0.91%
- Haemoglobin ([2]; Diarrhoea (n = 15)): 12.40 ± 0.33 g/dL
- Lymphocytes ([2]; Diarrhoea (n = 15)): 19.92 ± 1.92%
- Monocytes ([2]; Diarrhoea (n = 15)): 7.88 ± 0.71%
- Neutrophils ([2]; Diarrhoea (n = 15)): 68.81 ± 2.38%
- Platelets ([2]; Diarrhoea (n = 15)): 259.20 ± 23.25 THOU/MM^3
- White Blood Cells ([2]; Diarrhoea (n = 15)): 5.60 ± 0.44 THOU/MM^3
- Basophils ([2]; No Diarrhoea (n = 5)): 0.64 ± 0.22%
- Eosinophils ([2]; No Diarrhoea (n = 5)): 3.42 ± 0.73%
- Haematocrit ([2]; No Diarrhoea (n = 5)): 29.76 ± 0.87%
- Haemoglobin ([2]; No Diarrhoea (n = 5)): 10.06 ± 0.84 g/dL
- Lymphocytes ([2]; No Diarrhoea (n = 5)): 14.50 ± 0.74%
- Monocytes ([2]; No Diarrhoea (n = 5)): 8.10 ± 0.74%
- Neutrophils ([2]; No Diarrhoea (n = 5)): 73.60 ± 2.05%
- Platelets ([2]; No Diarrhoea (n = 5)): 334.40 ± 54.80 THOU/MM^3
- White Blood Cells ([2]; No Diarrhoea (n = 5)): 5.92 ± 0.87 THOU/MM^3
- HCT [2, 8]: 34.34 ± 0.69%
- HGB [2, 8]: 11.56 ± 0.25 g/dL
- HCT [2, 9]: 33.17 ± 0.94%
- HGB [2, 9]: 11.13 ± 0.30 g/dL
- HCT [2, 10]: 32.84 ± 1.50%
- HGB [2, 10]: 12.46 ± 0.44 g/dL
- HCT [2, 11]: 37.48 ± 1.39%
- HGB [2, 11]: 11.06 ± 0.46 g/dL
- HCT [2, 12]: 35.21 ± 0.67%
- HGB [2, 12]: 11.81 ± 0.22 g/dL
- HCT [2, 13]: 33.06 ± 0.77%
- HGB [2, 13]: 11.11 ± 0.25 g/dL
